Reference: ChEMBL document CHEMBL1671617, “Correlation of antimicrobial resistance with beta-lactamases, the OmpA-like porin, and efflux pumps in clinical isolates of Acinetobacter baumannii endemic to New York City” (2008)

Columns and labels:
Assay type in all cases: functional
Acinetobacter baumannii [1] = assay: Antimicrobial activity against ISAba1 linked with the blaOXA-51-type beta-lactamase harboring Acinetobacter baumannii zeta clonal group isolate 23 expressing ampC, ompA, adeB, adeM, aadA1, aacA4, aacC2, aphA6 by Etest method
Acinetobacter baumannii [2] = assay: Antimicrobial activity against ISAba1 linked with the blaOXA-51-type beta-lactamase harboring Acinetobacter baumannii zeta clonal group isolate 26 expressing ampC, ompA, adeB, adeM, aadA1, aacA4, aacC2, blaSHV-5 by Etest method
Acinetobacter baumannii [3] = assay: Antimicrobial activity against ISAba1 linked with the blaOXA-51-type beta-lactamase harboring Acinetobacter baumannii beta clonal group isolate 11 expressing ompA, adeB, adeM, blaSHV-5 by Etest method
Acinetobacter baumannii [4] = assay: Antimicrobial activity against Acinetobacter baumannii nu clonal group isolate 32 expressing ampC, ompA, adeB, adeM, aadB, aadA2 by Etest method
Acinetobacter baumannii [5] = assay: Antimicrobial activity against Acinetobacter baumannii nu clonal group isolate 34 expressing ampC, ompA, adeB, adeM by Etest method
Acinetobacter baumannii [6] = assay: Antimicrobial activity against ISAba1 linked with the blaOXA-51-type beta-lactamase harboring Acinetobacter baumannii zeta clonal group isolate 25 expressing ampC, ompA, adeB, adeM, aadA1, aacA4, aacC2, blaSHV-5 by Etest method
Acinetobacter baumannii [7] = assay: Antimicrobial activity against ISAba1 linked with the blaOXA-51-type beta-lactamase harboring Acinetobacter baumannii zeta clonal group isolate 21 expressing ampC, ompA, adeB, adeM, aacC2, blaSHV-5 by Etest method
Acinetobacter baumannii [8] = assay: Antimicrobial activity against Acinetobacter baumannii eta clonal group isolate 35 expressing ampC, ompA, adeB, adeM by Etest method
Acinetobacter baumannii [9] = assay: Antimicrobial activity against ISAba1 linked with the blaOXA-51-type beta-lactamase harboring Acinetobacter baumannii beta clonal group isolate 10 expressing ompA, adeB, adeM, aacA4, blaSHV-5 by Etest method
Acinetobacter baumannii [10] = assay: Antimicrobial activity against Acinetobacter baumannii nu clonal group isolate 31 expressing ampC, ompA, adeB, adeM, aadB, aadA2 by Etest method
Acinetobacter baumannii [11] = assay: Antimicrobial activity against Acinetobacter baumannii unique clonal group isolate 37 expressing ampC, ompA, adeB, adeM by Etest method
Acinetobacter baumannii [12] = assay: Antimicrobial activity against ISAba1 linked with the blaOXA-51-type beta-lactamase harboring Acinetobacter baumannii lambda clonal group isolate 28 expressing ampC, ompA, adeM, aadB, aadA1 by Etest method
Acinetobacter baumannii [13] = assay: Antimicrobial activity against ISAba1 linked with the blaOXA-51-type beta-lactamase harboring Acinetobacter baumannii beta clonal group isolate 15 expressing ompA, adeB, adeM, aacA4, blaSHV-5 by Etest method
Acinetobacter baumannii [14] = assay: Antimicrobial activity against ISAba1 linked with the blaOXA-51-type beta-lactamase harboring Acinetobacter baumannii zeta clonal group isolate 24 expressing ampC, ompA, adeB, adeM, aadA1, aacA4, aacC2, blaSHV-5 by Etest method
Acinetobacter baumannii [15] = assay: Antimicrobial activity against ISAba1 linked with the blaOXA-51-type beta-lactamase harboring Acinetobacter baumannii beta clonal group isolate 17 expressing ompA, adeB, adeM, aacA4, blaSHV-5 by Etest method
Acinetobacter baumannii [16] = assay: Antimicrobial activity against ISAba1 linked with the blaOXA-51-type beta-lactamase harboring Acinetobacter baumannii beta clonal group isolate 12 expressing ompA, adeB, adeM, aacA4, aacC2, blaSHV-5 by Etest method
Acinetobacter baumannii [17] = assay: Antimicrobial activity against Acinetobacter baumannii eta clonal group isolate 36 expressing ampC, ompA, adeB, adeM by Etest method
Acinetobacter baumannii [18] = assay: Antimicrobial activity against ISAba1 linked with the blaOXA-51-type beta-lactamase harboring Acinetobacter baumannii beta clonal group isolate 13 expressing ompA, adeB, adeM, aacA4, blaSHV-5 by Etest method
Acinetobacter baumannii [19] = assay: Antimicrobial activity against Acinetobacter baumannii unique clonal group isolate 38 expressing ampC, ompA, adeB, adeM by Etest method
Acinetobacter baumannii [20] = assay: Antimicrobial activity against Acinetobacter baumannii alpha clonal group isolate 4 expressing ampC, ompA, adeB, adeM, aacC1, aadA1 by Etest method
Acinetobacter baumannii [21] = assay: Antimicrobial activity against ISAba1 linked with the blaOXA-51-type beta-lactamase harboring Acinetobacter baumannii zeta clonal group isolate 19 expressing ampC, ompA, adeB, adeM, aacC2 by Etest method
Acinetobacter baumannii [22] = assay: Antimicrobial activity against ISAba1 linked with the blaOXA-51-type beta-lactamase harboring Acinetobacter baumannii beta clonal group isolate 14 expressing ompA, adeB, adeM, aacA4, blaSHV-5 by Etest method
Acinetobacter baumannii [23] = assay: Antimicrobial activity against ISAba1 linked with the blaOXA-51-type beta-lactamase harboring Acinetobacter baumannii unique clonal group isolate 40 expressing ampC, ompA, adeB, adeM, aadA1, aacA4, aacC2, blaSHV-5 by Etest method
Acinetobacter baumannii [24] = assay: Antimicrobial activity against Acinetobacter baumannii unique clonal group isolate 39 expressing ampC, ompA, adeM by Etest method
Acinetobacter baumannii [25] = assay: Antimicrobial activity against ISAba1 linked with the blaOXA-51-type beta-lactamase harboring Acinetobacter baumannii alpha clonal group isolate 7 expressing ampC, ompA, adeB, adeM, blaSHV-5 by Etest method
Acinetobacter baumannii [26] = assay: Antimicrobial activity against ISAba1 linked with the blaOXA-51-type beta-lactamase harboring Acinetobacter baumannii beta clonal group isolate 9 expressing ampC, ompA, adeB, adeM by Etest method
Acinetobacter baumannii [27] = assay: Antimicrobial activity against ISAba1 linked with the blaOXA-51-type beta-lactamase harboring Acinetobacter baumannii alpha clonal group isolate 8 expressing ampC, ompA, adeB, adeM, aacC1, aadA1 by Etest method
Acinetobacter baumannii [28] = assay: Antimicrobial activity against ISAba1 linked with the blaOXA-51-type beta-lactamase harboring Acinetobacter baumannii lambda clonal group isolate 30 expressing ampC, ompA, adeB, adeM, aadB, aadA1 by Etest method
Acinetobacter baumannii [29] = assay: Antimicrobial activity against ISAba1 linked with the blaOXA-51-type beta-lactamase harboring Acinetobacter baumannii zeta clonal group isolate 20 expressing ampC, ompA, adeB, adeM, aacC2 by Etest method
Acinetobacter baumannii [30] = assay: Antimicrobial activity against Acinetobacter baumannii nu clonal group isolate 33 expressing ampC, ompA, adeB, adeM by Etest method
Acinetobacter baumannii [31] = assay: Antimicrobial activity against ISAba1 linked with the blaOXA-51-type beta-lactamase harboring Acinetobacter baumannii alpha clonal group isolate 1 expressing ampC, ompA, adeB, adeM by Etest method
Acinetobacter baumannii [32] = assay: Antimicrobial activity against ISAba1 linked with the blaOXA-51-type beta-lactamase harboring Acinetobacter baumannii beta clonal group isolate 16 expressing ompA, adeB, adeM, aacA4, blaSHV-5 by Etest method
Acinetobacter baumannii [33] = assay: Antimicrobial activity against Acinetobacter baumannii alpha clonal group isolate 3 expressing ampC, ompA, adeB, adeM, aacC1, aadA1 by Etest method
Acinetobacter baumannii [34] = assay: Antimicrobial activity against ISAba1 linked with the blaOXA-51-type beta-lactamase harboring Acinetobacter baumannii lambda clonal group isolate 29 expressing ampC, ompA, adeM, aadB, aadA1 by Etest method
Acinetobacter baumannii [35] = assay: Antimicrobial activity against ISAba1 linked with the blaOXA-51-type beta-lactamase harboring Acinetobacter baumannii beta clonal group isolate 18 expressing ompA, adeB, adeM, aacA4, blaSHV-5 by Etest method
Acinetobacter baumannii [36] = assay: Antimicrobial activity against ISAba1 linked with the blaOXA-51-type beta-lactamase harboring Acinetobacter baumannii alpha clonal group isolate 6 expressing ampC, ompA, adeB, adeM, aacC1, aadA1 by Etest method
Acinetobacter baumannii [37] = assay: Antimicrobial activity against Acinetobacter baumannii lambda clonal group isolate 27 expressing ampC, ompA, adeB, adeM, aadB, aadA1 by Etest method
Acinetobacter baumannii [38] = assay: Antimicrobial activity against Acinetobacter baumannii alpha clonal group isolate 5 expressing ampC, ompA, adeB, adeM, aacC1, aadA1 by Etest method
Acinetobacter baumannii [39] = assay: Antimicrobial activity against Acinetobacter baumannii alpha clonal group isolate 2 expressing ampC, ompA, adeB, adeM, aacC1, aadA1 by Etest method
Acinetobacter baumannii [40] = assay: Antimicrobial activity against ISAba1 linked with the blaOXA-51-type beta-lactamase harboring Acinetobacter baumannii zeta clonal group isolate 22 expressing ampC, ompA, adeB, adeM, aadA1, aacA4, aacC2, blaSHV-5 by Etest method

Measured: MIC

NCC[C@H](O)C(=O)N[C@@H]1C[C@H](N)[C@@H](O[C@H]2O[C@H](CN)[C@@H](O)[C@H](O)[C@H]2O)[C@H](O)[C@H]1O[C@H]1O[C@H](CO)[C@@H](O)[C@H](N)[C@H]1O [AMIKACIN]
6 µg/mL: Acinetobacter baumannii [9] | Acinetobacter baumannii [11]
< 0.5 µg/mL: Acinetobacter baumannii [37]
4 µg/mL: Acinetobacter baumannii [4] | Acinetobacter baumannii [10] | Acinetobacter baumannii [26] | Acinetobacter baumannii [27]
1.5 µg/mL: Acinetobacter baumannii [19] | Acinetobacter baumannii [24] | Acinetobacter baumannii [31] | Acinetobacter baumannii [36]
8 µg/mL: Acinetobacter baumannii [13] | Acinetobacter baumannii [15] | Acinetobacter baumannii [18] | Acinetobacter baumannii [22] | Acinetobacter baumannii [32]
48 µg/mL: Acinetobacter baumannii [28] | Acinetobacter baumannii [40]
24 µg/mL: Acinetobacter baumannii [1] | Acinetobacter baumannii [16] | Acinetobacter baumannii [35]
2 µg/mL: Acinetobacter baumannii [20] | Acinetobacter baumannii [25] | Acinetobacter baumannii [33] | Acinetobacter baumannii [38] | Acinetobacter baumannii [39]
32 µg/mL: Acinetobacter baumannii [2] | Acinetobacter baumannii [6] | Acinetobacter baumannii [14] | Acinetobacter baumannii [23]
3 µg/mL: all other assays above

CC(C)(O/N=C(\C(=O)N[C@@H]1C(=O)N2C(C(=O)[O-])=C(C[n+]3ccccc3)CS[C@H]12)c1csc(N)n1)C(=O)O [CEFTAZIDIME]
32 µg/mL: Acinetobacter baumannii [7]
128 µg/mL: Acinetobacter baumannii [3]
> 48 µg/mL: Acinetobacter baumannii [13] | Acinetobacter baumannii [15] | Acinetobacter baumannii [18] | Acinetobacter baumannii [22] | Acinetobacter baumannii [32]
48 µg/mL: Acinetobacter baumannii [9] | Acinetobacter baumannii [26]
16 µg/mL: Acinetobacter baumannii [1] | Acinetobacter baumannii [19]
4 µg/mL: Acinetobacter baumannii [4] | Acinetobacter baumannii [10] | Acinetobacter baumannii [24]
24 µg/mL: Acinetobacter baumannii [21] | Acinetobacter baumannii [29]
6 µg/mL: Acinetobacter baumannii [5] | Acinetobacter baumannii [30]
12 µg/mL: Acinetobacter baumannii [8] | Acinetobacter baumannii [11] | Acinetobacter baumannii [17]
96 µg/mL: Acinetobacter baumannii [27] | Acinetobacter baumannii [35]
> 256 µg/mL: all other assays above

C[C@@H](O)[C@H]1C(=O)N2C(C(=O)O)=C(SCCNC=N)C[C@H]12 [IMIPENEM ANHYDROUS]
32 µg/mL: Acinetobacter baumannii [16]
2 µg/mL: Acinetobacter baumannii [31]
0.19 µg/mL: Acinetobacter baumannii [19]
16 µg/mL: Acinetobacter baumannii [9] | Acinetobacter baumannii [12] | Acinetobacter baumannii [34] | Acinetobacter baumannii [40]
6 µg/mL: Acinetobacter baumannii [7] | Acinetobacter baumannii [27]
0.38 µg/mL: Acinetobacter baumannii [20] | Acinetobacter baumannii [33] | Acinetobacter baumannii [38] | Acinetobacter baumannii [39]
4 µg/mL: Acinetobacter baumannii [25] | Acinetobacter baumannii [37]
1 µg/mL: Acinetobacter baumannii [21] | Acinetobacter baumannii [29]
8 µg/mL: Acinetobacter baumannii [28]
0.5 µg/mL: Acinetobacter baumannii [11]
> 16 µg/mL: Acinetobacter baumannii [13] | Acinetobacter baumannii [15] | Acinetobacter baumannii [18] | Acinetobacter baumannii [22] | Acinetobacter baumannii [32]
> 1.5 µg/mL: Acinetobacter baumannii [2] | Acinetobacter baumannii [6] | Acinetobacter baumannii [14]
> 32 µg/mL: Acinetobacter baumannii [1] | Acinetobacter baumannii [3] | Acinetobacter baumannii [23]
12 µg/mL: Acinetobacter baumannii [26] | Acinetobacter baumannii [35]
3 µg/mL: Acinetobacter baumannii [36]
0.25 µg/mL: all other assays above

C[C@H]1COc2c(N3CCN(C)CC3)c(F)cc3c(=O)c(C(=O)O)cn1c23.C[C@H]1COc2c(N3CCN(C)CC3)c(F)cc3c(=O)c(C(=O)O)cn1c23.O [LEVOFLOXACIN]
12 µg/mL: Acinetobacter baumannii [1] | Acinetobacter baumannii [21] | Acinetobacter baumannii [29]
6 µg/mL: Acinetobacter baumannii [11] | Acinetobacter baumannii [25] | Acinetobacter baumannii [36]
0.13 µg/mL: Acinetobacter baumannii [19]
4 µg/mL: Acinetobacter baumannii [5] | Acinetobacter baumannii [30]
0.09 µg/mL: Acinetobacter baumannii [24]
> 6 µg/mL: Acinetobacter baumannii [8] | Acinetobacter baumannii [17]
> 12 µg/mL: Acinetobacter baumannii [4] | Acinetobacter baumannii [10] | Acinetobacter baumannii [20] | Acinetobacter baumannii [33] | Acinetobacter baumannii [38] | Acinetobacter baumannii [39]
32 µg/mL: Acinetobacter baumannii [27]
3 µg/mL: Acinetobacter baumannii [37]
16 µg/mL: Acinetobacter baumannii [2] | Acinetobacter baumannii [6] | Acinetobacter baumannii [14] | Acinetobacter baumannii [28] | Acinetobacter baumannii [31] | Acinetobacter baumannii [40]
not listed: Acinetobacter baumannii [12] | Acinetobacter baumannii [34]
> 32 µg/mL: all other assays above

C[C@@H](O)[C@H]1C(=O)N2C(C(=O)O)=C(S[C@@H]3CN[C@H](C(=O)N(C)C)C3)[C@H](C)[C@H]12 [MEROPENEM]
1.5 µg/mL: Acinetobacter baumannii [11] | Acinetobacter baumannii [20] | Acinetobacter baumannii [33] | Acinetobacter baumannii [38] | Acinetobacter baumannii [39]
> 2 µg/mL: Acinetobacter baumannii [2] | Acinetobacter baumannii [6] | Acinetobacter baumannii [14]
24 µg/mL: Acinetobacter baumannii [27]
0.25 µg/mL: Acinetobacter baumannii [24]
12 µg/mL: Acinetobacter baumannii [36]
0.75 µg/mL: Acinetobacter baumannii [8] | Acinetobacter baumannii [17]
16 µg/mL: Acinetobacter baumannii [7]
> 1.5 µg/mL: Acinetobacter baumannii [21] | Acinetobacter baumannii [29]
4 µg/mL: Acinetobacter baumannii [31]
0.38 µg/mL: Acinetobacter baumannii [4] | Acinetobacter baumannii [5] | Acinetobacter baumannii [10] | Acinetobacter baumannii [19] | Acinetobacter baumannii [30]
32 µg/mL: Acinetobacter baumannii [37]
> 32 µg/mL: all other assays above
